# Laboratory results as given in patent publication US20180021277A1, “ANTI-VIRULENCE COMPOSITIONS AND METHODS” (priority 2012, published 2018).
# Key:
# [1] = system: MRSE Q-15; test: Host cell damage assay (LDH leakage), MRSE; type: cell-based, Staphylococcus epidermidis; settings: for % Damage (LDH Leakage): THP-1 human monocytes; for Damage (%): Table 2, control = 100
# Method: (§1) Damage to host cells was measured by leakage of lactate dehydrogenase (LDH) with the CytoTox 96 Non-Radioactive Cytotoxicity LDH Assay Promega Kits G178 and G1782 according to manufacturer's instructions.
# (§2) […] The bacteria were cultured at 37° C., in a shaking incubator for 6 h at which time 20 μL of bacterial culture was added to 5×10^4 THP-1 monocytes or J774.2 macrophages in 100 μL of cell media (DMEM for J774.2 cells and RPMI for THP-1 cells) in 96 well plates. Bacteria and macrophage/monocytes were incubated together for 40 min at 37° C. Plates were then spun at 250 g for 4 min and 50 μL of the supernatant was removed to a new 96 well plate. 50 μL of substrate mix+assay buffer were added and incubated at room temperature for 10-30 min depending upon the rate of product formation and stopped by addition of 50 μL stop solution. The colorometric products were read at 490 nm on a Victor 3 plate reader. The data presented are from experiments performed in triplicate.
# (§3) Gram-positive pathogens compromise host cell defense factors by puncturing membranes of immune system cells. To examine F19 efficacy in preventing host cell damage by various pathogens cell lysis assays were carried out by measuring leakage of lactate dehydrogenase (LDH) from cells. F19 indeed inhibits pathogen-mediated lysis of human THP-1 monocytes and mouse macrophage cell line J7774.2 by a series of Gram-positive pathogens, including MRSA, MRSE, Streptococcus pyogenes, Streptococcus pneumoniae and Bacillus cereus in a dose dependent manner (Table 2 for MRSA, Table 4 for other pathogens).
# [2] = system: MRSA; test: CFU counts of F19 treated vs. untreated MRSA cultures (serial dilution-plating); type: cell-based, Staphylococcus aureus
# [3] = system: Bacillus cereus; test: Host cell damage assay (LDH leakage), Bacillus cereus; type: cell-based; settings: THP-1 human monocytes
# Method: as §1
# Overnight cultures of the bacterial strain to be tested were spun down, washed, diluted 1:4 and incubated with broth containing 10-50 μg/ml of F19 or containing 2% DMSO as control. The bacteria were cultured at 37° C., in a shaking incubator for 6 h at which time 20 μL of bacterial culture was added to 5×10^4 THP-1 monocytes or J774.2 macrophages in 100 μL of cell media (DMEM for J774.2 cells and RPMI for THP-1 cells) in 96 well plates. Bacteria and macrophage/monocytes were incubated together for 40 min at 37° C. Plates were then spun at 250 g for 4 min and 50 μL of the supernatant was removed to a new 96 well plate. 50 μL of substrate mix+assay buffer were added and incubated at room temperature for 10-30 min depending upon the rate of product formation and stopped by addition of 50 μL stop solution. The colorometric products were read at 490 nm on a Victor 3 plate reader. The data presented are from experiments performed in triplicate.
# as §3
# [4] = system: Strepococcus pyogenes AC7; test: Host cell damage assay (LDH leakage), Streptococcus pyogenes; type: cell-based; settings: THP-1 human monocytes
# Method: as §1, §2, §3
# [5] = system: MRSE Q-15; test: Biofilm measurement (crystal violet), MRSE; type: cell-based, Staphylococcus epidermidis; settings: control = 100
# Method: Bacterial cells were grown in Luria Broth overnight and an OD600 of 0.5 corresponding to 10^6 cfu/mL. 200 μL of this bacterial culture was plated with the presence of compound at various concentrations. Biofilm was allowed to form by placing the plate at 37° C. in the incubator without shaking. The plate was then washed 2× with water while being careful not to disturb the biofilm. Water was aspirated out and the plate was baked dry in a 60° C. incubator for 2 h. 125 μL of a 0.06% crystal violet solution ([…] in H2O) was added to each well and allowed to sit at room temperature for 15 minutes. […] The plate was inverted on a paper towel to dry overnight.125 μL of 30% acetic acid was added to each well and was left at room temperature for 15 minutes. The wells were mixed by pipetting and the solution was transferred to a clean 96-well plate and read at OD595.
# [6] = biological target: T1, AgrA_C from S. epidermidis / P3 DNA (Staphylococcus epidermidis, UniProt Q5HMY2); test: Electrophoretic mobility shift assay of AgrA_C from S. epidermidis with P3 DNA; type: binding; settings: 1 nM P3 DNA, 1 μM AgrA_C, increasing F19, 1% DMSO
# T1 sequence (Q5HMY2 143-238): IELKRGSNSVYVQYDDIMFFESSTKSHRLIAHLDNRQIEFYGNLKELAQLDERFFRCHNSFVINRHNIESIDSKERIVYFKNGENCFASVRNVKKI
# Method: FIG. 8 illustrates Electrophoretic mobility shift assay of AgrA_C from S. epidermidis as a function of F19 concentration. […] P3 DNA was radiolabeled with 32P. The concentrations of P3 DNA and AgrA_C were 1 nM and 1 μM, respectively. F19 was titrated in at increasing concentrations while maintaining a constant concentration of 1% DMSO.
# [7] = system: MRSA USA300; test: Host cell damage assay (LDH leakage), MRSA; type: cell-based, Staphylococcus aureus; settings: for % Damage (LDH Leakage): THP-1 human monocytes; for Damage (%): Table 2, control = 100
# Method: as §1, §2, §3
# [8] = system: MRSA knockout strain (Lac Δagr); type: cell-based, Staphylococcus aureus; settings: data not shown
# [9] = biological target: T2, AgrA_C from Staphylococcus epidermidis (Staphylococcus epidermidis, UniProt Q5HMY2); test: Microscale thermophoresis binding to AgrA_C from S. epidermidis; settings: compared with S. aureus AgrA_C; data not shown
# T2 sequence (Q5HMY2 143-238 limits assumed): T1 sequence (Q5HMY2 143-238)
# Method: The AgrA C proteins from S. aureus and S. epidermidis were fluorescently labeled with Alexa Fluor 647 NHS ester and purified on Zeba spin columns. Compound F19 was diluted as a gradient through the capillaries while protein concentrations were maintained constant. Measurements were performed on a Nanotemper Monolith NT.115 apparatus. Lysozyme and known inhibitor N,N′,N″-triacetylchitotriose (Fisher Scientific) were used as controls.
# [10] = system: Strepococcus pneumonia NR13395; test: Host cell damage assay (LDH leakage), Streptococcus pneumoniae; type: cell-based; settings: THP-1 human monocytes
# Method: as §1, §2, §3
compound,measurement,setting,value
CCCCCCc1cc(C(=O)COc2ccc(C(C)C)cc2)c(O)cc1O [4f-19],% Damage (LDH Leakage),[1]; F19 1 μg/mL,85.5 ± 2.6%
same,% Damage (LDH Leakage),[1]; F19 5 μg/mL,62.6 ± 1.1%
same,% Damage (LDH Leakage),[1]; F19 10 μg/mL,48.1 ± 1.1%
same,% Damage (LDH Leakage),[1]; F19 20 μg/mL,26.5 ± 0.5%
same,% Damage (LDH Leakage),[1]; F19 30 μg/mL,22.1 ± 0.6%
same,% Damage (LDH Leakage),[1]; F19 40 μg/mL,19.6 ± 1.1%
same,Damage (%),[1]; F19 1 μg/ml,85.5 ± 2.6%
same,Damage (%),[1]; F19 10 μg/ml,48.1 ± 1.1%
same,Damage (%),[1]; F19 50 μg/ml,15.7 ± 0.5%
same,"CFU counts, F19 treated vs. untreated cultures",[2],identical CFU counts
same,% Damage (LDH Leakage),[3]; F19 30 μg/mL,63.7 ± 1.3%
same,% Damage (LDH Leakage),[3]; F19 40 μg/mL,52.0 ± 0.1%
same,% Damage (LDH Leakage),[3]; F19 50 μg/mL,69.7 ± 1.2%
same,% Damage (LDH Leakage),[4]; F19 5 μg/mL,97.4 ± 0.7%
same,% Damage (LDH Leakage),[4]; F19 10 μg/mL,88.4 ± 1.9%
same,% Damage (LDH Leakage),[4]; F19 20 μg/mL,73.6 ± 0.5%
same,% Damage (LDH Leakage),[4]; F19 30 μg/mL,56.2 ± 3.4%
same,% Damage (LDH Leakage),[4]; F19 40 μg/mL,38.7 ± 1.8%
same,Biofilm (%),[5]; F19 1 μg/ml,92.2 ± 9.8%
same,Biofilm (%),[5]; F19 10 μg/ml,69.3 ± 10.7%
same,Biofilm (%),[5]; F19 50 μg/ml,34.1 ± 9.8%
same,formation of the protein-nucleic acid complex (EMSA),[6],prevent the formation of the protein—nucleic acid complex
same,% Damage (LDH Leakage),[7]; F19 1 μg/mL,62.0 ± 0.6%
same,% Damage (LDH Leakage),[7]; F19 10 μg/mL,44.2 ± 2.0%
same,% Damage (LDH Leakage),[7]; F19 50 μg/mL,29.1 ± 1.6%
same,Damage (%),[7]; F19 1 μg/ml,62.0 ± 0.6%
same,Damage (%),[7]; F19 10 μg/ml,44.2 ± 2.0%
same,Damage (%),[7]; F19 50 μg/ml,29.1 ± 1.6%
same,synergy with antibiotics in Lac Δagr,[8],synergy is lost
same,affinity to AgrA_C from Staphylococcus epidermidis,[9],Statistically identical affinity
same,% Damage (LDH Leakage),[10]; F19 1 μg/mL,89.3 ± 1.0%
same,% Damage (LDH Leakage),[10]; F19 5 μg/mL,68.3 ± 1.1%
same,% Damage (LDH Leakage),[10]; F19 10 μg/mL,45.5 ± 1.7%
same,% Damage (LDH Leakage),[10]; F19 20 μg/mL,37.1 ± 0.6%
same,% Damage (LDH Leakage),[10]; F19 50 μg/mL,37.7 ± 0.7%
